Experimental data as given in US5393742A, “Preparation for treating renal disease” (MECT Corporation, priority 1990, dated 1995).

Test system: Male ddy mice
Experiment: Simplified acute toxicity test of N-acetylneuraminates in mice by intravenous injection
Type: in vivo
Conditions: for Deaths (in words): 1,000 and 2,000 mg/kg i.v.
Protocol: Simplified acute toxicity test:
A simplified acute toxicity test of N-acetylneuraminates in mice by intravenous injection was carried out as follows.
Lithium-, potassium-, barium- and magnesium- salts of N-acetylneuraminic acid were used (all were from MECT Corporation).
Body weights at the start of the test: 17.7-21.1 g
The number of animals at each level: 3 mice
(3) Room temperature: 23±1° C. - Humidity: 55±7%
The above-mentioned test compounds were dissolved in physiological saline solution to make a 0.2 ml solution per 20 g of body weight in a mouse as an injection fluid and injected into the tail vein. The doses were 500, 1,000 and 2,000 mg/kg.

| SMILES | The number of deaths per day course (500 mg/kg i.v., 1 hrs) | The number of deaths per day course (500 mg/kg i.v., 3 hrs) | The number of deaths per day course (500 mg/kg i.v., 6 hrs) | The number of deaths per day course (500 mg/kg i.v., 24 hrs) | The number of deaths per day course (500 mg/kg i.v., 2 days) | The number of deaths per day course (500 mg/kg i.v., 3 days) | The number of deaths per day course (500 mg/kg i.v., 4 days) | The number of deaths per day course (500 mg/kg i.v., 5 days) | The number of deaths per day course (500 mg/kg i.v., 6 days) | Final Lethality (500 mg/kg i.v., 7 days) | The number of deaths per day course (500 mg/kg i.v., 7 days) | Final Lethality (1000 mg/kg i.v., 7 days) | Final Lethality (2000 mg/kg i.v., 7 days) | Deaths (in words) | further results |
| --- | --- | --- | --- | --- | --- | --- | --- | --- | --- | --- | --- | --- | --- | --- | --- |
| CC(=O)N[C@H]1[C@H]([C@H](O)[C@H](O)CO)OC(O)(C(=O)O)C[C@@H]1O (stereo partly drawn) [Magnesium N-acetylneuraminate] | 0 | 0 | 0 | 0 | 0 | 0 | 0 | 0 | 0 | 0/3 | 0 | 3/3 | 3/3 | all of the 3 mice died | – |
| CC(=O)N[C@H]1[C@H]([C@H](O)[C@H](O)CO)OC(O)(C(=O)[O-])C[C@@H]1O.[K+] (stereo partly drawn) [Potassium N-acetylneuraminate] | 0 | 0 | 0 | 0 | 0 | 0 | 0 | 0 | 0 | 0/3 | 0 | 3/3 | 3/3 | all of the 3 mice died | The number of deaths per day course (1000 mg/kg i.v., 7 days): 0; The number of deaths per day course (1000 mg/kg i.v., 1 hrs): 3; The number of deaths per day course (1000 mg/kg i.v., 3 hrs): 0; The number of deaths per day course (1000 mg/kg i.v., 6 hrs): 0; The number of deaths per day course (1000 mg/kg i.v., 24 hrs): 0; The number of deaths per day course (1000 mg/kg i.v., 2 days): 0; The number of deaths per day course (1000 mg/kg i.v., 3 days): 0; The number of deaths per day course (1000 mg/kg i.v., 4 days): 0; The number of deaths per day course (1000 mg/kg i.v., 5 days): 0; The number of deaths per day course (1000 mg/kg i.v., 6 days): 0; The number of deaths per day course (2000 mg/kg i.v., 7 days): 0; The number of deaths per day course (2000 mg/kg i.v., 1 hrs): 3; The number of deaths per day course (2000 mg/kg i.v., 3 hrs): 0; The number of deaths per day course (2000 mg/kg i.v., 6 hrs): 0; The number of deaths per day course (2000 mg/kg i.v., 24 hrs): 0; The number of deaths per day course (2000 mg/kg i.v., 2 days): 0; The number of deaths per day course (2000 mg/kg i.v., 3 days): 0; The number of deaths per day course (2000 mg/kg i.v., 4 days): 0; The number of deaths per day course (2000 mg/kg i.v., 5 days): 0; The number of deaths per day course (2000 mg/kg i.v., 6 days): 0 |
